In US20260137671A1, “PDK4 as a Cell-Aging Intervention Target and Its Use in Chemotherapy and Anticancer” (Shanghai Institute of Nutrition and Health, Chinese Academy …, priority 2022, published 2026):

Key:
HTR2B = target: T1, HTR2B (Homo sapiens, UniProt P41595); assay: Malignant phenotype of HTR2B-transduced PCa lines with HTR2B antagonist; type: cell-based; details: PCa lines PC3, DU145, M12; antagonist applied under culture conditions
T1 construct: expressed in transfected cells; host or cells: PCa cell lines (PC3, DU145, M12)
Source text: FIG. 59. Left, appraisal of the proliferation capacity of PCa lines under different conditions. As the experimental group, human HTR2B was transduced into each PCa cell line, and LY 266097 was used in the culture medium as a control for drug treatment. Middle, measurement of the migration ability of PCa lines under different conditions, with cells treated similarly as described above. Right, measurement of the migration ability of PCa lines under different conditions, with cells treated similarly as described above.
(§1) After PSC27 cells were cultured in DMEM+0.5% FBS medium for 3 days, then the cell population was washed thoroughly with 1×PBS. After a simple centrifugation, the supernatant was collected as conditioned medium, stored at −80° C. or used directly. Prostate epithelial cells are subjected to in vitro experiments during continuous culture in this conditioned medium for 3 days. For chemotherapy resistance, epithelial cell lines were cultured either in low-serum DMEM (0.5% FBS) (referred to as “DMEM”) or in conditioned medium. Simultaneously, mitoxantrone (MIT) was used to treat cells for 1 to 3 days at concentrations close to the IC50 values for each cell line, followed by observation under a bright-field microscope.
More importantly, the transduction of HTR2B enhanced resistance of PCa cells to mitoxantrone (MIT). […]

[1] = tested on: PC3 cells xenografted together with PSC27 cells; assay: PC3/PSC27 xenograft, tumor end volume after chemotherapy and/or PDK4-IN; type: in vivo, SCID mice; details: MIT alone, 0.2 mg/kg i.p., first day of weeks 3, 5, 7; end of 8-week regimen
Procedure: All experimental mouse experiments were carried out in strict accordance with the relevant regulations of the Institutional Animal Care and Use Committee (IACUC), Shanghai Institutes for Biological Sciences, Chinese Academy of Sciences. Immuno-deficient mice ICR SCID mice (body weight about 25 g) aged about 6 weeks were used for animal experiments related to the present disclosure. Stromal cells PSC27 and epithelial cells were mixed at a ratio of 1:4, and each graft contained 1.25×10^6 cells for tissue remodeling. The xenograft tumors were implanted into mice by subcutaneous transplantation, and the animals were euthanized 8 weeks after the end of the transplantation surgery. […] For pre-clinical chemotherapeutic studies, mice received subcutaneous implantation were given standard laboratory diets. […] The time points were on the first day of the third, fifth and seventh weeks, with a total of 3 cycles of treatment, and each cycle lasted for 2 weeks. After the course of treatment, mouse […] were collected for tumor measurement and histological analysis. […] The chemotherapy experiment ended at the end of the 8th week, and the mice were dissected immediately after sacrifice, and the xenograft tumors were collected and used for pathological system analysis. To closely mimic clinical conditions involving chemotherapeutic drugs, the inventors designed a preclinical regimen incorporating a genotoxic drug (MIT) and/or the PDK4 inhibitor (PDK4-IN) (FIG. 63).

PC3 = assay: MIT-based viability assay of PC3; type: cell-based, human; details: PC3, range of concentrations of MIT
Procedure: FIG. 61. Dose-response curves (non-linear regression/curve fit) plotted from MIT-based viability assays of PC3 exposed to the CM of PSC27-PDK4 cells and treated by a range of concentrations of MIT.
as §1

[2] = tested on: tumor tissues of mice (PC3/PSC27 xenografts); assay: In vivo cellular senescence and SASP expression in xenograft tumors (LCM transcripts, SA-β-Gal staining); parameters: species or system SCID mice; details: histological staining, FIG. 68
Source text: FIG. 66. Transcript assessment of several canonical SASP factors expressed in stromal cells isolated from tumors in SCID mice. LCM isolation, total RNA preparation and expression assays on tissues from animals with simultaneously implanted stromal cells and cancer cells. Note that the group measured as of the lowest value was used as normalization baseline per factor.
FIG. 67. Transcript assessment of individual canonical SASP factors (AREG), aging markers (p16/p21) and PDK4 expressed in stromal cells isolated from tumors in SCID mice. LCM isolation, total RNA preparation and expression assays on tissues from animals with simultaneously implanted stromal cells and cancer cells. Note that the group measured as of the lowest value was used as normalization baseline per factor.
FIG. 68. Representative IHC images of SA-β-Gal staining chromatograms from tissues isolated from animals subjected to placebo or drug treatments. Scale bar, 100 μm. Right, Comparative statistical analysis of SA-β-Gal staining for tissues in mice mentioned above.
Senescence-associated β-galactosidase (SA-β-Gal) staining was performed following a previously reported procedure (Debacq-Chainiaux et al., 2009). Briefly, cells in culture dishes were washed with PBS and fixed at room temperature. Cells were fixed in 2% formaldehyde and 0.2% glutaraldehyde for 3 minutes. SA-β-Gal was used for staining with freshly prepared staining solution overnight at 37° C. Images were taken on the next day and the percentage of positive cells per unit area was calculated.
For pre-clinical chemotherapeutic studies, mice received subcutaneous implantation were given standard laboratory diets. […] The time points were on the first day of the third, fifth and seventh weeks, with a total of 3 cycles of treatment, and each cycle lasted for 2 weeks. After the course of treatment, mouse […] were collected for tumor measurement and histological analysis. […]

[3] = tested on: cancer cells in tumors (PC3/PSC27 xenografts); assay: DNA damage and apoptosis in tumors by IHC (γ-H2AX, cleaved caspase 3); type: in vivo, SCID mice
Source text: FIG. 69. Statistical evaluating values of DNA-damaged cells and apoptotic cells in analyzed tumor specimens, represented as a percentage of cells positively stained by IHC with antibodies against γ-H2AX or caspase 3 (cleaved).
FIG. 70. Representative IHC images of caspase 3 (cleaved) in tumors at the end of therapeutic regimens. Biopsies of placebo-treated animals served as negative controls for drug-treated mice. Scale bar, 100 μm.
Considering the primary in vivo expressive results with MIT and/or PDK4-IN treatment, the inventors next asked how pharmacologically targeting PDK4 could enhance the therapeutic response of tumors. To disclose the possible mechanism(s), the inventors chose to dissect tumors from animals 7 days after initiation of treatment, a timepoint right before the development of resistant colonies.

[4] = tested on: MDA-MB-231 breast cancer cells xenografted together with HBF1203 breast stromal cells; assay: MDA-MB-231/HBF1203 xenograft, tumor end volume after chemotherapy and/or PDK4-IN; type: in vivo, SCID mice; details: DTX 1.0 mg/kg with PDK4-IN; FIG. 73
Procedure: All experimental mouse experiments were carried out in strict accordance with the relevant regulations of the Institutional Animal Care and Use Committee (IACUC), Shanghai Institutes for Biological Sciences, Chinese Academy of Sciences. Immuno-deficient mice ICR SCID mice (body weight about 25 g) aged about 6 weeks were used for animal experiments related to the present disclosure. Stromal cells PSC27 and epithelial cells were mixed at a ratio of 1:4, and each graft contained 1.25×10^6 cells for tissue remodeling. The xenograft tumors were implanted into mice by subcutaneous transplantation, and the animals were euthanized 8 weeks after the end of the transplantation surgery. Tumor volume was calculated according to the following formula: V=(π/6)×(([…])/2)^3 (V, volume; 1, length; w, width).
For pre-clinical chemotherapeutic studies, mice received subcutaneous implantation were given standard laboratory diets. […] The time points were on the first day of the third, fifth and seventh weeks, with a total of 3 cycles of treatment, and each cycle lasted for 2 weeks. After the course of treatment, mouse […] were collected for tumor measurement and histological analysis. […] In order to cause systemic expression of SASP factors induced by chemotherapy, MIT was administered to mice through intravenous infusion according to the above steps and sequence, but the dose was reduced to 0.1 mg/kg body weight/each time (the cumulative dose of MIT received in the whole course of treatment was 0.3 mg/kg body weight) to reduce drug-related toxicity. The chemotherapy experiment ended at the end of the 8th week, and the mice were dissected immediately after sacrifice, and the xenograft tumors were collected and used for pathological system analysis.
To assess the in vivo effects of chemotherapeutic drugs and/or PDK4-IN treatment in different tumor types, the inventors subsequently generated xenografts composed of breast cancer cell line MDA-MB-231 and breast stromal cell line HBF1203 to replicate the preclinical intervention observed in prostate cancer xenografts.

T1 sequence (P41595 whole entry): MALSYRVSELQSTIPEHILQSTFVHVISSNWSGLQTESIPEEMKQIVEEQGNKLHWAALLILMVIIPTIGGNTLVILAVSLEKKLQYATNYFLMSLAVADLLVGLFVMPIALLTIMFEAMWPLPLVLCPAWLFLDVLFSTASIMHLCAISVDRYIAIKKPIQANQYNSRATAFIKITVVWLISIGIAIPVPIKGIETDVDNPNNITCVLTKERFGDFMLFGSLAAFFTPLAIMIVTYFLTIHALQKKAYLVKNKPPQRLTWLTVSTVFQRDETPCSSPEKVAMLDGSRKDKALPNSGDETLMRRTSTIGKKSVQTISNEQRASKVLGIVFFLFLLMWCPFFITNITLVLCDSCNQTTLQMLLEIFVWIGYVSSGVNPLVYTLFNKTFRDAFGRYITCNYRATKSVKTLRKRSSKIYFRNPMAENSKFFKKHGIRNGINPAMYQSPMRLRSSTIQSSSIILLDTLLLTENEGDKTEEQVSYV

## COc1ccc(CC2NCCc3c2[nH]c2ccc(C)cc32)c(Cl)c1OC.Cl (stereo not shown) [LY 266097]
HTR2B
  HTR2B-conferred gain of proliferation, migration, invasion and resistance to MIT: generally lost

## O=C1c2c(O)ccc(O)c2C(=O)c2c(NCCNCCO)ccc(NCCNCCO)c21 [MIT, mitoxantrone]
[1]
  tumor shrinkage (tumor volume reduction): 57.5%
PC3
  survival curve of cancer cells under genotoxic stress: declined trend
[2]
  SA-β-gal positivity in tumor tissues: elevated SA-β-gal positivity
[3]; MIT administration alone
  caspase 3 cleavage (IHC): increased caspase 3 cleavage
[3]; tumors dissected 7 days after initiation of treatment, single agent
  DNA damage and apoptosis in cancer cells: caused substantial DNA damage and apoptosis

## CC(=O)O[C@@]12CO[C@@H]1C[C@H](O)[C@@]1(C)C(=O)[C@H](O)C3=C(C)[C@@H](OC(=O)[C@H](O)[C@@H](NC(=O)OC(C)(C)C)c4ccccc4)C[C@@](O)([C@@H](OC(=O)c4ccccc4)[C@H]21)C3(C)C [docetaxel (DTX), docetaxel]
[4]
  tumor regression by combination with PDK4-IN (non-genotoxic drug): unable to replicate the effects
